The test system of assay [1] is L1210. As to the kind of experiment: Cytotoxicity against mouse L1210 cells. The class given is functional, cell-based.
The test system of assay [2] is KB. As to the kind of experiment: Cytotoxicity against human KB cells. The class given is functional, cell-based.

Each structure is given as a SMILES string. ≈ marks a conversion by molar mass, not a printed value.

Consider `CO[C@@H]1[C@@H](O)[C@H](O[C@@H]2[C@@H](O)[C@H](O[C@H]3[C@H](O)[C@@H](O[C@@H]4OC[C@@H](O)[C@H](O)[C@H]4O)[C@H](O[C@H]4[C@H](O[C@H]5CC[C@]6(C)C7=CC[C@]8(C)[C@@H]([C@@](C)(O)CCCC(C)C)CC[C@@]8(C)[C@@H]7CC[C@H]6C5(C)C)OC[C@@H](O)[C@@H]4O)O[C@@H]3C)O[C@H](CO)[C@H]2O)O[C@H](CO)[C@H]1O` [DS-PENAUSTROSIDE A], for which the figures for the IC50 in assay [1] and in assay [2] were 0.12 µg/mL (≈ 0.101 µM) and 0.62 µg/mL (≈ 0.52 µM), respectively.
Consider `C=C(C)CCC[C@](C)(O)[C@H]1CC[C@@]2(C)[C@@H]3CC[C@H]4C(C)(C)[C@@H](O[C@@H]5OC[C@@H](O)[C@H](O)[C@H]5O[C@@H]5O[C@H](C)[C@@H](O[C@@H]6O[C@H](CO)[C@@H](O)[C@H](O[C@@H]7O[C@H](CO)[C@@H](O)[C@H](OC)[C@H]7O)[C@H]6O)[C@H](O)[C@H]5O[C@@H]5OC[C@@H](O)[C@H](O)[C@H]5O)CC[C@]4(C)C3=CC[C@]12C` [DS-PENAUSTROSIDE B], for which the half-inhibitory concentration (IC50) was found to be 2.1 µg/mL (≈ 1.76 µM) in assay [1] and 4.6 µg/mL (≈ 3.86 µM) in assay [2].

In general, IC50 refers to the concentration needed to halve the response being measured. Low readings indicate inhibition by little substance, high ones a need for much substance.

The values above are taken from ChEMBL document CHEMBL1149723, “Structures of four new triterpenoid oligoglycosides: DS-penaustrosides A, B, C, and D from the sea cucumber Pentacta australis” (J Nat Prod, 1992).
